Experiment: Assay (III): purity of liraglutide by HPLC (chemical stability)
Format: physicochemical
Conditions: composition without phenol, compared with phenol-containing compositions
Procedure: Assay (III): Determination of Purity of Liraglutide
Determination of purity was performed using high performance liquid chromatography (HPLC) using a Waters XTerra™ MS C18 column with a gradient elution of two mobile phases, where one mobile phase was an aqueous ammonium phosphate buffer (pH 8)/acetonitrile mixture and the other mobile phase was acetonitrile in water. Detection was performed at 215 nm.
The results in Table 5 were obtained as follows: Compositions comprising liraglutide were tested. The tested compositions contained liraglutide (as specified in Table 4), mannitol (36.9 mg/ml), disodium hydrogen phosphate (1.42 mg/ml), and optionally phenol (as specified in Table 4), at pH 7.4 in an aqueous solution. These compositions were prepared as described herein in the section General Methods of Preparation. Chemical stability as expressed by purity was determined by Assay (III) described herein at start of the experiment and after storage at 25° C. or at 37° C.

CCCCCCCCCCCCCCCC(=O)N[C@@H](CCC(=O)NCCCC[C@H](NC(=O)[C@H](C)NC(=O)[C@H](C)NC(=O)[C@H](CCC(N)=O)NC(=O)CNC(=O)[C@H](CCC(=O)O)NC(=O)[C@H](CC(C)C)NC(=O)[C@H](Cc1ccc(O)cc1)NC(=O)[C@H](CO)NC(=O)[C@H](CO)NC(=O)[C@@H](NC(=O)[C@H](CC(=O)O)NC(=O)[C@H](CO)NC(=O)[C@@H](NC(=O)[C@H](Cc1ccccc1)NC(=O)[C@@H](NC(=O)CNC(=O)[C@H](CCC(=O)O)NC(=O)[C@H](C)NC(=O)[C@@H](N)Cc1cnc[nH]1)[C@@H](C)O)[C@@H](C)O)C(C)C)C(=O)N[C@@H](CCC(=O)O)C(=O)N[C@@H](Cc1ccccc1)C(=O)N[C@H](C(=O)N[C@@H](C)C(=O)N[C@@H](Cc1c[nH]c2ccccc12)C(=O)N[C@@H](CC(C)C)C(=O)N[C@H](C(=O)N[C@@H](CCCNC(=N)N)C(=O)NCC(=O)N[C@@H](CCCNC(=N)N)C(=O)NCC(=O)O)C(C)C)[C@@H](C)CC)C(=O)O [liraglutide]
Chemical stability of liraglutide (in words): less chemically stable

From patent publication US12214017B2, “GLP-1 compositions and uses thereof” (Novo Nordisk A/S, priority 2017, dated 2025)
